Legend:
Assay in all cases: UDP-Glo glucosyl transferase assay, purified enzyme
Assay type in all cases: biochemical
[1] = target: T1, Zea mays bx8 glucosyl transferase (his tagged SEQ ID NO: 2) (Zea mays, UniProt Q8W2B7); settings: for Activity: herbicide 0.500 mM, N-terminally his tagged, limit of detection about 0.001
T1 construct: His tag (N); made in house; host or cells: E. coli BL21 (DE3), pET24a
T1 sequence (Q8W2B7 1-459): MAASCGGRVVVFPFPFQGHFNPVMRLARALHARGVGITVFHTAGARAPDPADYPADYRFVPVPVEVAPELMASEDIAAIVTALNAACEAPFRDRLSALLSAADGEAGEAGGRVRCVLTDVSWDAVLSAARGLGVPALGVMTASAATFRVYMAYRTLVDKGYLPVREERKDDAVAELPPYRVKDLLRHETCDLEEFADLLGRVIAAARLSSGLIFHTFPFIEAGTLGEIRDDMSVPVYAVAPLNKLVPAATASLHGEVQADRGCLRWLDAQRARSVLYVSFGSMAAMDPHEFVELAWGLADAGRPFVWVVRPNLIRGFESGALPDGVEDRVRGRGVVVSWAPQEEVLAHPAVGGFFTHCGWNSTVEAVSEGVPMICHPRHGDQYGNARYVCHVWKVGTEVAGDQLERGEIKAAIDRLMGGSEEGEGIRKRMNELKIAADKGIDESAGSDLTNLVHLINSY
Experimental: Glucosyl transferase activity is assayed via measurement of acceptor substrate-dependent production of UDP from ultrapure UDP-glucose using the Promega UDP-Glo™ method and according to the manufacturer's instructions. Assays are run in 96 well microtiter plates.
Enzyme, typically at a stock concentration of ˜2 mg/ml is diluted to an appropriate concentration in 50 mM K^+ Hepes buffer at pH7.5 containing 0.5 mg/mL bovine serum albumin (BSA) and 5 ul aliquots of this diluted enzyme added to each well of a Perkin Elmer white ½ area 96 well plate. […] Assays are run for an appropriate time (usually 10 to 60 min) so that the amount of UDP formed lies within the most nearly linear part of the UDP standard curve and are stopped with the addition and mixing of 25 ul UDP-Glo™ detection reagent (prepared as described below). Plates are then incubated at room temperature for 60 minutes and then read in a luminescence plate reader (Perkin Elmer Envision 2130 Multilabel Reader). A UDP standard curve is run alongside each set of assays and reagent blank control assays run with DMSO in place of test herbicide. Typically, 300 pmol of UDP corresponds to a Relative Luminescence Unit (RLU) reading of about 1.5E7 and the response curve between 0 and 600 pmol is fitted to a polynomial function (see for example FIG. 2).
The UDP-Glo™ reagents are made up and used according to the manufacturer's instructions. Thus, Nucleotide Detection Buffer and ATP are combined to make nucleotide detection reagent (NDR) dispensed into aliquots and frozen to be freshly thawed before use.
Km and kcat values in respect of UDP-glucose are derived by carrying out experiments to measure initial rates over a suitable range of concentrations of UDP glucose out at a fixed near saturating concentration of acceptor substrate. Best fit values of kcat, Km and kcat/Km are obtained by direct fitting of the data to the Michaelis-Menten equation using Graphpad Prism™ software.
The glucosyl transferase activities of the mutant bx8-derived polypeptides expressed in these strains were initially assayed versus herbicide V as described in Example 1. The partly purified C-terminally his tagged w/t bx8 enzyme (SEQ ID No: 2) catalyzed glucosyl transfer to herbicide V at a low rate estimated to be less than about 0.002/s at 1 mM herbicide V which, because of a relatively high background of UDP formation in the DMSO (no substrate reagent control) was difficult to quantify using the luminescence assay. Thus further assays were run by LC/MS using which technique the formation of an O-beta glucosyl glucoside of herbicide V could more easily be confirmed but only quantified in a relative sense. Thus the various derivatives of C-terminally his tagged Zea mays bx8 SEQ ID No:2 were cloned and expressed in E. coli BL21 (DE3) as described in Example 1 and assayed in plates as crude extracts, as in Example 2, but monitored by LCMS rather than the luminescence assay.
Assays were carried out as described in Example 1. Partly purified C-terminally his tagged w/t Larkspur enzyme (SEQ ID No 10 with a 6 amino acid C-terminal tag) catalyzed glucosyl transfer to herbicide V at a rate estimated to be about 0.0065/s/pmol at 1 mM herbicide V. The similarly-tagged w/t bx-like enzymes from rye (SEQ ID No 11) and from wheat (SEQ ID No 4) were also active but only at levels close to the detection limit at ˜0.0015/s/pmol. Further examples of assay results from further experiments are depicted in Table 14. […]

[2] = target: T2, SEQ ID NO 17, zmBX9 S117V, M279F, A334K mutant (Zea mays, UniProt B4G072, A334K/M279F/S117V); settings: herbicide mM: V 0.300, VI 0.250, VII 0.210; IV, VIII, XI, XXI, XX, XVIII, XVI, XV, XIV 0.200; others 1.000
T2 construct: polypeptides were the C-terminally his-tagged; His tag (C); made in house

[3] = target: T3, SEQ ID NO 22, mutant of Zea mays bx9 glucosyl transferase (Zea mays, UniProt B4G072, A334K/F21Y/M279F/S117V/T220P); settings: lower block, concentration printed only in upper block: V 0.300, VII 0.210; IV, VIII, XI, XXI, XX, XVIII, XVI, XV, XIV 0.200; others 1.000 mM
T3 construct: His tag (C); made in house
T3 sequence (B4G072 whole entry F21Y/S117V/T220P/M279F/A334K): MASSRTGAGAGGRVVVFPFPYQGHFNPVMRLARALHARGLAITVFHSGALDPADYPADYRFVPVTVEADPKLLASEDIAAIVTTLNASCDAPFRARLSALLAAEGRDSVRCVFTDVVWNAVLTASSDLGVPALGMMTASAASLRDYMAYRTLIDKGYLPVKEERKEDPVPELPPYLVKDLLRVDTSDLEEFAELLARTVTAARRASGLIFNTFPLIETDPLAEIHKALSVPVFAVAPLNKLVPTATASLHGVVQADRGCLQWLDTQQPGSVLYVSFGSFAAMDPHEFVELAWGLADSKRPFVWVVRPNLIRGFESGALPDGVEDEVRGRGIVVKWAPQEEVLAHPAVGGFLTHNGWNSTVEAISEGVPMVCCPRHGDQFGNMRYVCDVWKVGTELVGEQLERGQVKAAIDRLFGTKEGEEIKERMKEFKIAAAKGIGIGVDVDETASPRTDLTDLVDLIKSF

T2 sequence (B4G072 whole entry S117V/M279F/A334K): as the sequence (B4G072 whole entry F21Y/S117V/T220P/M279F/A334K) above, with Y21F, P220T counted along it

Compound	rate of glucosyl transfer ([1]; 1 mM herbicide V, partly purified C-terminally his tagged enzyme)	Activity [1]	Activity [2]	Activity [3]
CN1CC(O)N(c2cc(C(F)(F)F)ccn2)C1=O (stereo not drawn) [Compound V]	less than 0.002 /s	0.000 pmol/sec/pmol enzyme	0.565 pmol/sec/pmol enzyme	1.221 pmol/sec/pmol enzyme
Cc1cnc(N2C(=O)N(C)CC2O)cc1C(F)(F)F (stereo not drawn) [XVIII]	–	0.001 pmol/sec/pmol enzyme	0.231 pmol/sec/pmol enzyme	0.933 pmol/sec/pmol enzyme
CN1CC(O)N(c2cc(C(F)(F)F)c(Cl)cn2)C1=O (stereo not drawn) [XI]	–	0.001 pmol/sec/pmol enzyme	0.120 pmol/sec/pmol enzyme	0.548 pmol/sec/pmol enzyme
CON1C(=O)N(c2cc(C(F)(F)F)ccn2)C(O)[C@@H]1C (stereo partly drawn) [Compound VI]	–	0.000 pmol/sec/pmol enzyme	1.003 pmol/sec/pmol enzyme	–
